Reference: patent publication US10294229B2, “Heteroaryl substituted aminopyridine compounds” (BRISTOL-MYERS SQUIBB COMPANY, priority 2015, dated 2019)
pEC50, pIC50: −log10 of the molar value.

Experiments:
[1] = biological target: IRAK4 (Homo sapiens (Human), UniProt Q9NWZ3); test: IRAK4 Inhibition Assay; type: biochemical; conditions: ATP 500 μM; IRAK4 0.6 nM
Procedure, shortened: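 Mobility-shift kinase assay: 0.6 nM IRAK4, 500 μM ATP, 1.5 μM fluorescent peptide, 60 min, room temperature. Percent inhibition was normalised between enzyme-free and DMSO-only wells.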

[2] = test system: Human whole blood stimulated with a TLR2 agonist (lipoteichoic acid), IL-6 levels; test: IRAK4 Whole Blood Assay; type: cell-based; conditions: Homo sapiens, lipoteichoic acid 10 μg/mL
Procedure, shortened: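 IL-6 was quantified by cytometric bead assay in supernatants of human blood (ACD-A) stimulated for 5 h with lipoteichoic acid at 10 μg/mL final. Compound exposure preceded stimulation for 60 min at 37 °C, 5% CO2.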

IRAK4, sequence (Q9NWZ3 whole entry, species assumed): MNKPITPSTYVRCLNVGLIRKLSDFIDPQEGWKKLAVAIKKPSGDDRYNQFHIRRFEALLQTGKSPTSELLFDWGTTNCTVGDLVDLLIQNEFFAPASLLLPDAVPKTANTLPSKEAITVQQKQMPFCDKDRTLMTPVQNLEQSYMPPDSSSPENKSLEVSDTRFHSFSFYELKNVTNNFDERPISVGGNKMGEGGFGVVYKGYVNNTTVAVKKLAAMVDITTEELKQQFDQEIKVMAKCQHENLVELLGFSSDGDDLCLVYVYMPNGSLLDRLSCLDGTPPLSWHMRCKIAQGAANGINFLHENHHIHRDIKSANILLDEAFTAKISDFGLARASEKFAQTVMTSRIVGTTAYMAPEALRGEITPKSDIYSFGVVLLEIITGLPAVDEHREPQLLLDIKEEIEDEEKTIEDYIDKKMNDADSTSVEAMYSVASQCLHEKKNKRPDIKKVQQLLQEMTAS

SMILES	pIC50 [1]	pEC50 [2]
CCCn1cc(-c2cnc(-n3ncc4cc(C#N)cnc43)cc2Nc2cnn(CC(F)F)c2)cn1 [Example 256, 1-(4-((1-(2,2-difluoroethyl)-1H-pyrazol-4-yl)amino)-5-(1-propyl-1H-pyrazol-4-yl)pyridin-2-yl)-1H-pyrazolo[3,4-b]pyridine-5-carbonitrile]	7.85	6.22
CCCc1cn(-c2cnc(-n3ncc4cc(C#N)c(N)nc43)cc2NC2COC2)nn1 [Example 281, 6-amino-1-(4-(oxetan-3-ylamino)-5-(4-propyl-1H-1,2,3-triazol-1-yl)pyridin-2-yl)-1H-pyrazolo[3,4-b]pyridine-5-carbonitrile]	8.15	6.42
CCCc1cn(-c2cnc(-n3ncc4cc(Cl)cnc43)cc2NC(C)C)nn1 [Example 282, 2-(5-chloro-1H-pyrazolo[3,4-b]pyridin-1-yl)-N-isopropyl-5-(4-propyl-1H-1,2,3-triazol-1-yl)pyridin-4-amine]	7.89	5.65
CCCc1cn(-c2cnc(-n3ncc4cc(C#N)cnc43)cc2NC2CCOCC2)nn1 [Example 283, 1-(5-(4-propyl-1H-1,2,3-triazol-1-yl)-4-((tetrahydro-2H-pyran-4-yl)amino)pyridin-2-yl)-1H-pyrazolo[3,4-b]pyridine-5-carbonitrile]	8.15	5.89
CCCc1cn(-c2cnc(-n3cnc4cc(C#N)cnc43)cc2N[C@@H](C)CO)nn1 [Example 285, (S)-3-(4-((1-hydroxypropan-2-yl)amino)-5-(4-propyl-1H-1,2,3-triazol-1-yl)pyridin-2-yl)-3H-imidazo[4,5-b]pyridine-6-carbonitrile]	7.77	5.19
CC(C)Nc1cc(-n2ncc3cc(C#N)cnc32)ncc1-n1cc(C[C@@H](O)c2ccccc2)nn1 [Example 315, (R)-1-(5-(4-(2-hydroxy-2-phenylethyl)-1H-1,2,3-triazol-1-yl)-4-(isopropylamino)pyridin-2-yl)-1H-pyrazolo[3,4-b]pyridine-5-carbonitrile]	8.30	5.75
CC(C)Nc1cc(-n2ncc3cc(C#N)cnc32)ncc1-n1cc(CCc2ccccc2)nn1 [Example 319, 1-(4-(isopropylamino)-5-(4-phenethyl-1H-1,2,3-triazol-1-yl)pyridin-2-yl)-1H-pyrazolo[3,4-b]pyridine-5-carbonitrile]	8.70	6.04
CC(C)Nc1cc(-n2ncc3cc(C#N)cnc32)ncc1-n1cc(CS(=O)(=O)c2ccccc2)nn1 [Example 332, 1-(4-(isopropylamino)-5-(4-((phenylsulfonyl)methyl)-1H-1,2,3-triazol-1-yl)pyridin-2-yl)-1H-pyrazolo[3,4-b]pyridine-5-carbonitrile]	8.05	5.69
CC(C)Nc1cc(-n2ncc3cc(C#N)cnc32)ncc1-n1cc(C2CCN(C(=O)OC(C)(C)C)CC2)nn1 [Example 333, tert-butyl 4-(1-(6-(5-cyano-1H-pyrazolo[3,4-b]pyridin-1-yl)-4-(isopropylamino)pyridin-3-yl)-1H-1,2,3-triazol-4-yl)piperidine-1-carboxylate]	7.85	5.33

Second part, the compound after the results:

pIC50 [1]	pEC50 [2]	SMILES
8.40	6.28	CC(C)Nc1cc(-n2ncc3cc(C#N)cnc32)ncc1-c1cn(CC2CCC2)cn1 [Example 233, 1-(5-(1-(cyclobutylmethyl)-1H-imidazol-4-yl)-4-(isopropylamino)pyridin-2-yl)-1H-pyrazolo[3,4-b]pyridine-5-carbonitrile]
7.80	6.36	CC(=O)N1CC(Cn2cnc(-c3cnc(-n4ncc5cc(C#N)cnc54)cc3NC(C)C)c2)C1 [Example 234, 1-(5-(1-((1-acetylazetidin-3-yl)methyl)-1H-imidazol-4-yl)-4-(isopropylamino)pyridin-2-yl)-1H-pyrazolo[3,4-b]pyridine-5-carbonitrile]
7.96	6.00	CC(C)Nc1cc(-n2ncc3cc(C#N)cnc32)ncc1-c1cn(CC2COC2)cn1 [Example 236, 1-(4-(isopropylamino)-5-(1-(oxetan-3-ylmethyl)-1H-imidazol-4-yl)pyridin-2-yl)-1H-pyrazolo[3,4-b]pyridine-5-carbonitrile]
7.85	6.28	CC(C)Nc1cc(-n2ncc3cc(C#N)cnc32)ncc1-n1cc(C2CCCC2)nn1 [Example 266, 1-(5-(4-cyclopentyl-1H-1,2,3-triazol-1-yl)-4-(isopropylamino)pyridin-2-yl)-1H-pyrazolo[3,4-b]pyridine-5-carbonitrile]
7.80	5.93	CCC(O)Cc1cn(-c2cnc(-n3ncc4cc(C#N)cnc43)cc2NC(C)C)nn1 (centres unmarked) [Example 303, 1-(5-(4-(2-hydroxybutyl)-1H-1,2,3-triazol-1-yl)-4-(isopropylamino)pyridin-2-yl)-1H-pyrazolo[3,4-b]pyridine-5-carbonitrile]
8.00	6.26	CC(C)Cc1cn(-c2cnc(-n3ncc4cc(C#N)cnc43)cc2NC(C)C)nn1 [Example 305, 1-(5-(4-isobutyl-1H-1,2,3-triazol-1-yl)-4-(isopropylamino)pyridin-2-yl)-1H-pyrazolo[3,4-b]pyridine-5-carbonitrile]
8.52	6.24	CC(C)CCc1cn(-c2cnc(-n3ncc4cc(C#N)cnc43)cc2NC(C)C)nn1 [Example 307, 1-(5-(4-isopentyl-1H-1,2,3-triazol-1-yl)-4-(isopropylamino)pyridin-2-yl)-1H-pyrazolo[3,4-b]pyridine-5-carbonitrile]
8.52	6.03	CCCCc1cn(-c2cnc(-n3ncc4cc(C#N)cnc43)cc2NC(C)C)nn1 [Example 320, 1-(5-(4-butyl-1H-1,2,3-triazol-1-yl)-4-(isopropylamino)pyridin-2-yl)-1H-pyrazolo[3,4-b]pyridine-5-carbonitrile]
7.74	6.24	CC(C)Nc1cc(-n2ncc3cc(C#N)cnc32)ncc1-n1cc(CCC#N)nn1 [Example 321, 1-(5-(4-(2-cyanoethyl)-1H-1,2,3-triazol-1-yl)-4-(isopropylamino)pyridin-2-yl)-1H-pyrazolo[3,4-b]pyridine-5-carbonitrile]
8.22	5.88	CC(C)Nc1cc(-n2ncc3cc(C#N)cnc32)ncc1-n1cc(CCCC#N)nn1 [Example 323, 1-(5-(4-(3-cyanopropyl)-1H-1,2,3-triazol-1-yl)-4-(isopropylamino)pyridin-2-yl)-1H-pyrazolo[3,4-b]pyridine-5-carbonitrile]
7.74	5.47	CCN(CC)Cc1cn(-c2cnc(-n3ncc4cc(C#N)cnc43)cc2NC(C)C)nn1 [Example 324, 1-(5-(4-((diethylamino)methyl)-1H-1,2,3-triazol-1-yl)-4-(isopropylamino)pyridin-2-yl)-1H-pyrazolo[3,4-b]pyridine-5-carbonitrile]
7.80	6.00	CCc1cn(-c2cnc(-n3ncc4cc(C#N)cnc43)cc2NC(C)C)nn1 [Example 325, 1-(5-(4-ethyl-1H-1,2,3-triazol-1-yl)-4-(isopropylamino)pyridin-2-yl)-1H-pyrazolo[3,4-b]pyridine-5-carbonitrile]
8.22	6.20	CC(=O)N1CCC(c2cn(-c3cnc(-n4ncc5cc(C#N)cnc54)cc3NC(C)C)nn2)CC1 [Example 335, 1-(5-(4-(1-acetylpiperidin-4-yl)-1H-1,2,3-triazol-1-yl)-4-(isopropylamino)pyridin-2-yl)-1H-pyrazolo[3,4-b]pyridine-5-carbonitrile]
